Assay results from patent US5407932A, “Quinolone derivatives and antibacterial agents containing the same” (Wakunaga Seiyaku Kabushiki Kaisha, priority 1989, dated 1995).
Values after ≈ are worked out from the molar mass of the structure shown.

Tests used:
Assay in all cases: Minimum inhibitory concentration, standard method of the Japan Society of Chemotherapy
Format in all cases: cell-based
[1] = test system: E. coli NIH JC-2 (IFO 12734); conditions: Escherichia coli, IFO12734
Experimental: (§1) With respect to certain representative compounds among the compounds [I] of the present invention, their minimum inhibitory concentrations (MIC; μg/ml) were measured in accordance with the standard method established by the Japan Society of Chemotherapy [CHEMOTHERAPY, 29(1), 76-79 (1981)]. The results are summarized in Table 1, in which the compound numbers are as shown in examples.

[2] = test system: P. aeruginosa (IFO 3445); conditions: Pseudomonas aeruginosa, IFO3445
Experimental: as §1

[3] = test system: S. aureus 209 P (IFO 12732); conditions: Staphylococcus aureus, IFO12732
Experimental: as §1

Row | SMILES | MIC [1] | MIC [2] | MIC [3]
1 | CN(C)C1CCN(c2c(F)cc3c(=O)c(C(=O)O)cn(C4COC4)c3c2F)C1 (stereo not drawn) [Compound 19] | 0.2 µg/mL (≈ 0.508 µM) | 3.13 µg/mL (≈ 7.96 µM) | 1.56 µg/mL (≈ 3.97 µM)
2 | NCC1CCN(c2c(F)cc3c(=O)c(C(=O)O)cn(C4COC4)c3c2F)C1 (stereo not drawn) [Compound 20] | 1.56 µg/mL (≈ 4.11 µM) | 3.13 µg/mL (≈ 8.25 µM) | 0.2 µg/mL (≈ 0.527 µM)
3 | NCC1CN(c2c(F)cc3c(=O)c(C(=O)O)cn(C4COC4)c3c2F)CCO1 (stereo not drawn) [Compound 22] | 6.25 µg/mL (≈ 15.8 µM) | > 25 µg/mL | 0.78 µg/mL (≈ 1.97 µM)
4 | Nc1c(F)c(N2CCCC2)c(F)c2c1c(=O)c(C(=O)O)cn2C1COC1 [Compound 27, 5-Amino-6,8-difluoro-1-(oxetan-3-yl)-7-(pyrrolidin-1-yl)-1,4-dihydro-4-oxoquinoline-3-carboxylic acid] | 0.39 µg/mL (≈ 1.07 µM) | 3.13 µg/mL (≈ 8.57 µM) | 0.2 µg/mL (≈ 0.547 µM)
5 | Nc1c(F)c(N2CCSCC2)c(F)c2c1c(=O)c(C(=O)O)cn2C1COC1 [Compound 28] | 0.78 µg/mL (≈ 1.96 µM) | 6.25 µg/mL (≈ 15.7 µM) | 0.78 µg/mL (≈ 1.96 µM)
6 | Nc1c(F)c(N2Cc3ccccc3C2)c(F)c2c1c(=O)c(C(=O)O)cn2C1COC1 [Compound 30] | 0.78 µg/mL (≈ 1.89 µM) | 3.13 µg/mL (≈ 7.57 µM) | 0.2 µg/mL (≈ 0.484 µM)
7 | Nc1c(F)c(N2CCC(N)C2)c(F)c2c1c(=O)c(C(=O)O)cn2C1COC1 (stereo not drawn) [Compound 31] | 0.2 µg/mL (≈ 0.526 µM) | 0.78 µg/mL (≈ 2.05 µM) | 0.39 µg/mL (≈ 1.03 µM)
8 | NCC1CCN(c2c(F)c(N)c3c(=O)c(C(=O)O)cn(C4COC4)c3c2F)C1 (stereo not drawn) [Compound 32] | 0.78 µg/mL (≈ 1.98 µM) | 3.13 µg/mL (≈ 7.94 µM) | 0.1 µg/mL (≈ 0.254 µM)
9 | CN1CCN(c2cc3c(cc2F)c(=O)c(C(=O)O)cn3C2COC2)CC1 [Compound 35, 6-Fluoro-7-(4-methylpiperazin-1-yl)-1-(oxetan-3-yl)-1,4-dihydro-4-oxoquinoline-3-carboxylic acid] | 0.2 µg/mL (≈ 0.553 µM) | 3.13 µg/mL (≈ 8.66 µM) | 1.56 µg/mL (≈ 4.32 µM)
10 | O=C(O)c1cn(C2COC2)c2cc(N3CCNCC3)c(F)cc2c1=O [Compound 36] | 0.39 µg/mL (≈ 1.12 µM) | 3.13 µg/mL (≈ 9.01 µM) | 3.13 µg/mL (≈ 9.01 µM)
11 | NC1CCN(c2cc3c(cc2F)c(=O)c(C(=O)O)cn3C2COC2)C1 (stereo not drawn) [Compound 37] | 0.39 µg/mL (≈ 1.12 µM) | 1.56 µg/mL (≈ 4.49 µM) | 1.56 µg/mL (≈ 4.49 µM)
12 | NCC1CCN(c2cc3c(cc2F)c(=O)c(C(=O)O)cn3C2COC2)C1 (stereo not drawn) [Compound 38] | 3.13 µg/mL (≈ 8.66 µM) | 12.5 µg/mL (≈ 34.6 µM) | 0.39 µg/mL (≈ 1.08 µM)
13 | CN(C)C1CCN(c2cc3c(cc2F)c(=O)c(C(=O)O)cn3C2COC2)C1 (stereo not drawn) [Compound 39] | 0.39 µg/mL (≈ 1.04 µM) | 6.25 µg/mL (≈ 16.6 µM) | 1.56 µg/mL (≈ 4.16 µM)
14 | CN(C)CC1CCN(c2cc3c(cc2F)c(=O)c(C(=O)O)cn3C2COC2)C1 (stereo not drawn) [Compound 40] | 0.39 µg/mL (≈ 1 µM) | 6.25 µg/mL (≈ 16 µM) | 0.78 µg/mL (≈ 2 µM)
15 | NC1CN(c2cc3c(cc2F)c(=O)c(C(=O)O)cn3C2COC2)C1 [Compound 41] | 0.78 µg/mL (≈ 2.34 µM) | 6.25 µg/mL (≈ 18.8 µM) | 12.5 µg/mL (≈ 37.5 µM)
16 | O=C(O)c1cn(C2COC2)c2cc(N3CCC(O)C3)c(F)cc2c1=O (stereo not drawn) [Compound 42] | 0.78 µg/mL (≈ 2.24 µM) | 3.13 µg/mL (≈ 8.99 µM) | 1.56 µg/mL (≈ 4.48 µM)
17 | CNC1CCN(c2c(F)cc3c(=O)c(C(=O)O)cn(C4COC4)c3c2F)C1 (stereo not drawn) [Compound 44, 6,8-Difluoro-7-(3-methylaminopyrrolidin-1-yl)-1-(oxetan-3-yl)-1,4-dihydro-4-oxoquinoline-3-carboxylic acid] | 0.39 µg/mL (≈ 1.03 µM) | 1.56 µg/mL (≈ 4.11 µM) | 1.56 µg/mL (≈ 4.11 µM)
18 | CCNC1CCN(c2c(F)cc3c(=O)c(C(=O)O)cn(C4COC4)c3c2F)C1 (stereo not drawn) [Compound 45] | 0.39 µg/mL (≈ 0.991 µM) | 3.13 µg/mL (≈ 7.96 µM) | 1.56 µg/mL (≈ 3.97 µM)
19 | CNCC1CCN(c2c(F)cc3c(=O)c(C(=O)O)cn(C4COC4)c3c2F)C1 (stereo not drawn) [Compound 46] | 0.78 µg/mL (≈ 1.98 µM) | 3.13 µg/mL (≈ 7.96 µM) | 0.1 µg/mL (≈ 0.254 µM)
20 | CCNCC1CCN(c2c(F)cc3c(=O)c(C(=O)O)cn(C4COC4)c3c2F)C1 (stereo not drawn) [Compound 47] | 0.78 µg/mL (≈ 1.91 µM) | 6.25 µg/mL (≈ 15.3 µM) | 0.2 µg/mL (≈ 0.491 µM)
21 | NC1CN(c2c(F)cc3c(=O)c(C(=O)O)cn(C4COC4)c3c2F)C1 [Compound 48] | 0.39 µg/mL (≈ 1.11 µM) | 3.13 µg/mL (≈ 8.91 µM) | 1.56 µg/mL (≈ 4.44 µM)
22 | Nc1c(F)c(N2CC(N)C2)c(F)c2c1c(=O)c(C(=O)O)cn2C1COC1 [Compound 49] | 0.78 µg/mL (≈ 2.13 µM) | 3.13 µg/mL (≈ 8.54 µM) | 1.56 µg/mL (≈ 4.26 µM)
23 | CNC1CCN(c2c(F)c(N)c3c(=O)c(C(=O)O)cn(C4COC4)c3c2F)C1 (stereo not drawn) [Compound 50] | 0.39 µg/mL (≈ 0.989 µM) | 1.56 µg/mL (≈ 3.96 µM) | 0.78 µg/mL (≈ 1.98 µM)
24 | CCNC1CCN(c2c(F)c(N)c3c(=O)c(C(=O)O)cn(C4COC4)c3c2F)C1 (stereo not drawn) [Compound 51] | 0.78 µg/mL (≈ 1.91 µM) | 3.13 µg/mL (≈ 7.66 µM) | 1.56 µg/mL (≈ 3.82 µM)
25 | CNCC1CCN(c2c(F)c(N)c3c(=O)c(C(=O)O)cn(C4COC4)c3c2F)C1 (stereo not drawn) [Compound 52] | 0.78 µg/mL (≈ 1.91 µM) | 3.13 µg/mL (≈ 7.66 µM) | 0.1 µg/mL (≈ 0.245 µM)
